In patent publication US8007737B2, “Use of antioxidants to prevent oxidation and reduce drug degradation in drug eluting medical devices” (Wyeth, priority 2004, dated 2011):
pIC50: −log10 of the molar value. Read-outs that look alike come from different tables or passages of the source. Blank lines part the entries; values can stand above or below the molecule they belong to.

Columns and labels:
[1] = Drug concentration in liquid formulations by liquid chromatography / HPLC; format: physicochemical
Excerpt: In accordance with exemplary embodiments of the present invention, a series of liquid formulations were developed for the local or regional delivery of water insoluble compounds such as sirolimus and its analogs, including CCI-779, ABT-578 and everolimus, through weeping balloons and catheter injection needles. […] These liquid formulations increase the apparent solubility of the pharmacologically active but water insoluble compounds by two to four orders of magnitude as compared to the solubility limits of the compounds in water. These liquid formulations rely on the use of a very small amount of organic solvents such as Ethanol (typically less than two percent) and a larger amount of safe amphiphilic (of or relating to a molecule having a polar, water soluble group attached to a non-polar, water insoluble […]) excipients such as polyethylene glycol (PEG 200, PEG 400) and vitamin E TPGS to enhance the solubility of the compounds. These liquid formulations of highly water insoluble compounds are stable and readily flowable at room temperature. Certain excipients, such as Vitamin E TPGS and BHT may be utilized to enhance the storage stability of sirolimus compounds through their anti-oxidation properties. […]

[2] = test system: human coronary artery smooth muscle cell proliferation; experiment: In vitro cell culture study of coronary artery smooth muscle cell proliferation; format: cell-based
Excerpt: FIG. 51 is a graph of the inhibition of coronary artery smooth muscle cells by trichostatin A in a cell culture study.

tumor cell lines = details: Woo et al. 2002; cited from earlier work
[3] = Drug content (% label claim) of sirolimus solutions with antioxidants, HPLC assay
Experimental: Screening experiments were performed to evaluate the solubility of various antioxidants in […] (THF) solutions containing sirolimus and the percentage of antioxidant required to prevent oxidation of sirolimus alone and in a basecoat polymeric matrix. THF is the solvent in which sirolimus may be dissolved. It is important to note that other solvents may be utilized. Two sets of controls were utilized. Control #1 comprises solutions of THF and sirolimus and/or polymers with no antioxidant, and Control #2 comprises solutions of THF and sirolimus and/or polymers, wherein the THF contains a label claim of 250 ppm of BHT as a stabilizer from the vendor of THF. In other words, the BHT is an added constituent of the THF solvent to prevent oxidation of the solvent. All percentages are given as weight/volume.
Table 11, shown below, identifies the samples for evaluation. All percentages are given as weight/volume. The samples in Table 11 contain no polymer. Table 12, also shown below, identifies the samples for evaluation with the solutions now comprising polymers, including PBMA and PEVA as described herein.
(60° C.). The samples were evaluated after five (5) days utilizing a drug testing assay for silolimus. In the exemplary embodiment, a HPLC assay was utilized.
Additional samples were tested under ambient conditions, rather than at 60° C., and using the same compositions; however, the test period was expanded to seven weeks.

[4] = Percent drug content change on coated cobalt-chromium 18 mm stent; format: physicochemical; details: 0.02 weight percent BHT per total basecoat solids; 8 weeks and 12 weeks, ambient conditions (25° C.)
Excerpt: Referring to FIG. 75, there is illustrated in graphical format, the results of the same drug screening as described above with the solution applied to a cobalt-chromium, 18 mm stent. In this test, two sets of solution samples were utilized, one with sirolimus and polymer solution containing the antioxidant and one with sirolimus and polymer solution containing no antioxidant. The antioxidant utilized was 0.02 weight percent BHT per total basecoat solids.
The test was utilized to determine the percent drug content change over a time period of 0 to 12 weeks under two conditions; namely, 40° C. with 75 percent relative humidity, and ambient conditions (25° C.).

[5] = test system: human coronary artery smooth muscle cells; experiment: Anti-proliferative activity in synchronized cultured cells stimulated with two percent fetal bovine serum; format: cell-based; details: for effect on the anti-proliferative activity of rapamycin: topotecan zero to three hundred nanomolar, etoposide zero to eight hundred nanomolar, Panzem zero to 100 micromolar
Excerpt: (§1) The multiple curves represent various concentrations of topotecan ranging from zero to three hundred nanomolar concentrations.
(§2) The multiple curves represent various concentrations of etoposide ranging from zero to eight hundred nanomolar concentrations.
The multiple curves represent various concentrations of Panzem® ranging from zero to 100 micromolar concentrations.

[6] = test system: human coronary artery smooth muscle cell survival; details: concentrations up to 30,000.00 nanomolar
Excerpt: In vitro cytotoxicity tests or assays may be utilized to determine if drugs, agents and/or compounds are potentially toxic and the level of toxicity. Essentially, in vitro cytotoxicity assays determine acute necrotic effects by a drug causing direct cellular damage. The idea behind these assays is that toxic chemicals affect basic functions of cells which are common to all cells. […] There are a number of different assays that may be utilized. In the present invention, the cytotoxicity assay utilized is based upon the measurement of cellular metabolic activity. A reduction in metabolic activity is an indication of cellular damage. Tests that can measure metabolic function measure cellular ATP levels or mitochondrial activity via MTS metabolism. FIG. 69 is a graphical representation of the results of an MTS assay of Panzem®.

[7] = test system: human smooth muscle cells; experiment: Cladribine Example: PDGF-stimulated cell proliferation, cell count on day six; format: cell-based; details: from IC50 values
Experimental: To assess the ability of cladribine to prevent cell proliferation, human smooth muscle or endothelial cells (Clonetics, Walkersville, Md.) were seeded at a density of 2000 cells/cm^2 (approximately 3600 cells/well) into each well of 12-well plates and cultured with 1.5 ml of growth medium containing five percent fetal calf serum (FCS). After twenty-four hours, the growth medium was changed and fresh medium containing 10 ng/ml platelet-derived growth factor AB (PDGF AB; LIFE Technologies), as well as various concentrations of cladribine (0.001-10,000 nM) were added with triplicate wells. Medium was replaced with fresh cladribine-containing medium after three days. On day six, cells were detached by trypsinization to yield a cell suspension, lightly centrifuged to pellet and then counted manually using a Neubauer hemocytometer system. Cell viability was assessed by trypan blue exclusion.

[8] = test system: human coronary artery smooth muscle cells; experiment: Anti-proliferative activity in non-synchronized cultured cells stimulated with two percent fetal bovine serum; format: cell-based; details: for effect on the anti-proliferative activity of rapamycin: non-synchronized cells, mycophenolic acid zero to one thousand nanomolar, cladribine zero to nine hundred nanomolar
Excerpt: The multiple curves represent various concentrations of mycophenolic acid ranging from zero to one thousand nanomolar concentrations.
FIG. 58 illustrates, in graphical format, the anti-proliferative activity of cladribine in non-synchronized cultured human coronary artery smooth muscle cells stimulated with two percent fetal bovine serum.
The multiple curves represent various concentrations of cladribine ranging from zero to nine hundred nanomolar concentrations.

[9] = In vivo release kinetics from polymeric stent coatings, porcine pharmacokinetics studies
Excerpt: The topcoat is two hundred micro grams. […] Cladribine (2-chlorodeoxyadenosine or 2-CdA) is the 2-chloro-2′-deoxy derivative of the purine nucleoside, adenosine. Cladribine is resistant to degradation by adenosine deaminase, one of two intracellular adenine nucleotide regulatory enzymes, found in most cells. The other enzyme, 5′-nucleotidase, is present in variable amounts in different cell types (Carson et al., 1983). […] Thus, in cells such as leukocytes, which contain a high ratio (>0.04) of deoxycytidine kinase to 5′-nucleotidase, 2-CdA and its subsequent metabolites will tend to accumulate in pharmacological concentrations (Carson et al., 1983). Such high levels of a nucleoside triphosphate are known to inhibit the enzyme ribonucleotide reductase in rapidly dividing cells, thus preventing synthesis of deoxynucleotides required for DNA synthesis.
FIG. 61 is a graphical representation of the in vivo release kinetics of cladribine from a polymeric coating on Bx Velocity® stents, available from Cordis Corporation, implanted in a Yorkshire pig. […] The total weight of the topcoat is three hundred micrograms.
(§3) The basecoat is applied to Bx Velocity® stents and implanted into Yorkshire pigs.
as §3

cell viability = experiment: Cell viability assay; format: cell-based
Excerpt: as §1, §2

Molecule: CO[C@H]1C[C@@H]2CC[C@@H](C)[C@@](O)(O2)C(=O)C(=O)N2CCCC[C@H]2C(=O)O[C@H]([C@H](C)C[C@@H]2CC[C@@H](OC(=O)C(C)(CO)CO)[C@H](OC)C2)CC(=O)[C@H](C)/C=C(\C)[C@@H](O)[C@@H](OC)C(=O)[C@H](C)C[C@H](C)/C=C/C=C/C=C/1C [CCI-779]
concentration in the final solution (HPLC assay) ([1]; water and ethanol (less than two percent) as co-solvents, Vitamin E TPGS as excipient): 15000 µg/mL

Molecule: CC(/C=C/C(=O)NO)=C\[C@@H](C)C(=O)c1ccc(N(C)C)cc1 [trichostatin A]
inhibition of human coronary artery smooth muscle cell proliferation [2]: completely inhibit
pIC50 ([2]; human coronary artery smooth muscle cells, read-out: anti-proliferative IC50): ~8.22
anti-proliferative IC50's (tumor cell lines): low nM range

Molecule: COc1cc2c(cc1O)CC[C@@H]1[C@@H]2CC[C@]2(C)[C@@H](O)CC[C@@H]12 [Panzem®, 2-methoxyestradiol]
effect on the anti-proliferative activity of rapamycin [5]: increases the percent of inhibition of rapamycin alone
anti-proliferative activity ([5]; two percent fetal bovine serum): extremely effective inhibitor
cytotoxicity (MTS assay) [6]: do not reduce human coronary artery smooth muscle cell survival

Molecule: CC[C@@]1(O)C(=O)OCc2c1cc1n(c2=O)Cc2cc3c(CN(C)C)c(O)ccc3nc2-1 [topotecan]
effect on the anti-proliferative activity of rapamycin [5]: increases the percent inhibition of rapamycin alone
cytotoxicity (cell viability; concentrations up to one micromolar): non-cytotoxic

Molecule: COc1cc([C@@H]2c3cc4c(cc3[C@@H](O[C@@H]3O[C@@H]5CO[C@@H](C)O[C@H]5[C@H](O)[C@H]3O)[C@H]3COC(=O)[C@H]23)OCO4)cc(OC)c1O [etoposide]
effect on the anti-proliferative activity of rapamycin [5]: increases the percent inhibition of rapamycin alone
cytotoxicity (cell viability; concentrations up to ten micromolar): non-cytotoxic

Molecule: COc1c(C)c2c(c(O)c1C/C=C(\C)CCC(=O)O)C(=O)OC2 [mycophenolic acid]
effect on the anti-proliferative activity of rapamycin [8]: potentiates the anti-proliferative activity of rapamycin

More lines, main results first:

protection of sirolimus against degradation [3]: significant protection
Molecule: O=C1O[C@H]([C@@H](O)CO)C(O)=C1O [Ascorbic Acid]

protection of sirolimus against degradation [3]: significant protection
percent drug content change on stent [4]: lessens drug degradation
Molecule: Cc1cc(C(C)(C)C)c(O)c(C(C)(C)C)c1 [BHT, Butylated Hydroxytoluene]

protection of sirolimus against degradation ([3]; five days at 60° C.): significant protection
protection of sirolimus against degradation ([3]; four weeks at 60° C., higher percent concentrations of antioxidant): significant protection
Molecule: Tocopherol

in vivo elution from coating relative to rapamycin ([9]; EVA/BMA basecoat, BMA topcoat, Bx Velocity stents, Yorkshire pigs): elutes more rapidly than rapamycin
in vivo elution from coating ([9]; PVDF/HFP 85/15 basecoat and topcoat, Bx Velocity stents, Yorkshire pig, after the first day): levels off significantly
Molecule: Nc1nc(Cl)nc2c1ncn2[C@H]1C[C@H](O)[C@@H](CO)O1 [Cladribine, 2-chlorodeoxyadenosine]
potency on smooth muscle cells relative to endothelial cells [7]: approximately twice as potent
effect on the anti-proliferative activity of rapamycin [8]: increases the percent inhibition of rapamycin alone
inhibition of human coronary artery smooth muscle cell proliferation ([8]; non-synchronized, two percent fetal bovine serum): completely inhibits

concentration relative to the solubility of sirolimus in water ([1]; 4 mg/ml formulation with PEG 200, ethanol and water): four hundred to about one thousand
Molecule: CO[C@H]1C[C@@H]2CC[C@@H](C)[C@@](O)(O2)C(=O)C(=O)N2CCCC[C@H]2C(=O)O[C@H]([C@H](C)C[C@@H]2CC[C@@H](O)[C@H](OC)C2)CC(=O)[C@H](C)/C=C(\C)[C@@H](O)[C@@H](OC)C(=O)[C@H](C)C[C@H](C)/C=C/C=C/C=C/1C [Rapamycin, rapamycin]
in vivo release rate from coating ([9]; pig, in vivo): slower release rate than that of mycophenolic acid
